Measured values published in publication PMC6934184, “Selective DNA-PKcs inhibition extends the therapeutic index of localized radiotherapy and chemotherapy” (The Journal of Clinical Investigation, 2019).

Biological target: T1, FGFR3 K650E (Homo sapiens, UniProt P22607, K650E)
T1 construct: purchased Thermo Fisher Scientific (Life Technologies) SelectScreen
Test: SelectScreen Z'LYTE
Type: biochemical
How it was run: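 SelectScreen broad panel; activity (Z'LYTE, Adapta) plus binding formats. ATP: Km app for CSF1R Z'LYTE; 10 for CAMK1 Adapta. Readout = % per kinase.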

T1 sequence (P22607 23-806 K650E): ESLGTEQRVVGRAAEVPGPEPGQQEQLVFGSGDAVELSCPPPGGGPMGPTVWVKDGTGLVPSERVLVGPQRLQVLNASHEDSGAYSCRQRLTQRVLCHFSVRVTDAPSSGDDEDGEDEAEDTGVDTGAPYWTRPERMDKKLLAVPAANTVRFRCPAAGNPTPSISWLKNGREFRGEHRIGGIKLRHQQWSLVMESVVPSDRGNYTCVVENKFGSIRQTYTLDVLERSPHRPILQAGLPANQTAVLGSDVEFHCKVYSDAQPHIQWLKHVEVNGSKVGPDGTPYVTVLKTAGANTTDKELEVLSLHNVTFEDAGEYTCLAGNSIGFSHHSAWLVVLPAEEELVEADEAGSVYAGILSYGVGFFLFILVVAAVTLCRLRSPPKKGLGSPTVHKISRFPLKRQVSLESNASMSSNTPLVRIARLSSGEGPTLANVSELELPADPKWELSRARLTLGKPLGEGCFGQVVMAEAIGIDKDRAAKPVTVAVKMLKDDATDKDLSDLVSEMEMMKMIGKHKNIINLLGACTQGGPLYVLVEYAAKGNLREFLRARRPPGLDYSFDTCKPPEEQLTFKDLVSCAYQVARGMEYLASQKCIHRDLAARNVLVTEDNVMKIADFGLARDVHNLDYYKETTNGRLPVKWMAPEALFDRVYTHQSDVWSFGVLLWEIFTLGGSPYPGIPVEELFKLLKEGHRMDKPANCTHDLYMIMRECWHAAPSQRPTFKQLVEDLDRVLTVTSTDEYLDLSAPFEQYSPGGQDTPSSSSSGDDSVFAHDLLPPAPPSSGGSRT

## CN(C(=O)CN1CCOCC1)c1ccc2sc3c(-c4cccc5c(=O)cc(N6CC7CCC(C6)O7)oc45)cccc3c2c1 [NU5455]
  inhibition at 1 µM: 7.9%
